Test results reported in patent publication US20230135608A1 (CURACLE CO., LTD., priority 2021, published 2023).
Counter-ions that a name gives are not always drawn.

Experiments:
[1] = system: TGF-β/Smad signaling and ECM expression; details: chemical inhibitor of NQO1 or HO-1 added to DMF; cited from earlier work
NRK-49F cells = details: DMF 40 μmol/1, semi-quantitative RT-PCR; cited from earlier work
[2] = system: UUO-induced renal fibrosis model; details: cited from earlier work
[3] = system: RMCs and rat glomerular mesangial cells; details: cited from earlier work
[4] = system: rat renal fibroblast cell line (NRK-49F); details: cited from earlier work
Nrf2 = details: cited from earlier work
[5] = system: streptozotocin (STZ, 150 mg/kg)-induced diabetic nephropathy mouse model; assay: UUO renal fibrosis and streptozotocin-induced diabetic nephropathy mouse models; assay type: in vivo; details: UUO and STZ (150 mg/kg) mouse models
Experimental: As a result, it was confirmed that a dose of 25 mg/kg was effective for diabetic nephropathy. When the dose confirmed in the animal model is converted into HED (Human Equivalent Dose), it is calculated as follows. HED=Animal dose in mg/kg×{Animal weight in kg/Human weight in kg}×60 kg=25 mg/kg×0.08×60 kg=120 mg

AD-293 cells = details: cited from earlier work
NRK-49F and RMC cells = details: cited from earlier work
[6] = cited from earlier work

SMILES: COC1=CC(=O)c2c(c(COc3ccc([N+](=O)[O-])cc3)c(C)n2C)C1=O [ES936]
- reversal of the inhibitory effect of DMF on the TGF-β/Smad signaling and ECM expression [1]: did not reverse

SMILES: COC(=O)/C=C/C(=O)OC [DMF, Dimethyl fumarate]
- expression of NQO1 and HO-1 (NRK-49F cells): increased
- expression of collagen type I, fibronectin, PAI-1 and α-SMA related to fibrosis [2]: decreased the expression of collagen type I, fibronectin, PAI-1 and α-SMA
- expression of p-Smad3 increased by UUO [2]: decreased the expression of p-Smad3
- TGF-β-induced expression of PAI-1 protein [3]: inhibitory effect
- collagen type 1 induced by TGF-β (mRNA and protein) ([4]; 24 hours of TGF-β treatment): dose-dependently inhibit
- TGF-β-mediated expression of PAI-1, a-SMA, and fibronectin mRNA and protein [4]: inhibited the TGF-β-mediated expression of PAI-1, a-SMA, and fibronectin mRNA and protein dose-dependently
- Nrf2 protein expression (Nrf2; NRK-49F cells): sharp increase
- nuclear accumulation of Nrf2 (Nrf2; NRK-49F cells): induced the nuclear accumulation of Nrf2 dose-dependently
- expression of Nrf2 protein (Nrf2; RMC cells): rapidly increased
- expression of p62 (Nrf2; after DMF treatment): increased 6 h after the DMF treatment and up to 12 hours thereafter
- dose effective for diabetic nephropathy [5]: 25 mg/kg
- activity of the PAI-1 promoter induced by TGF-β (AD-293 cells; AD-293 cells, PAI-1-Luc reporter): inhibited
- activity of the (CAGA)9MLP-Luc promoter induced by TGF-β or ALK5 (AD-293 cells; reporter with 9 copies of the Smad3 binding site): inhibited
- Smad3 phosphorylation induced by TGF-β (NRK-49F and RMC cells): inhibited

SMILES: COC(=O)/C=C/C(=O)O [MMF, monomethyl fumarate]
- detection of MMF after administration ([6]; 24 hours after administration of the drug): not detected 24 hours after administration
- elimination half-life of MMF ([6]; in vivo): about 1 hour
- accumulation of MMF in the body ([6]; repeated administration): does not accumulate in the body even after repeated administration
